Laboratory results from ChEMBL document CHEMBL1201862, “PubChem BioAssay data set” (2004).
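Values below derive from 48-hour exposures of cells grown in 96-well plates, with endpoints linearly interpolated between the two concentrations bracketing the appropriate inhibition level. GI50: concentration for 50% inhibition of growth.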 The source made the active and inactive calls. Cut-off read from the data, not from the text of the source: active = GI50 up to about 1.1 µM and inactive = higher.

Assays:
Assay in all cases: inhibition of tumour cell growth, NCI panel, 48 h
SF-268 = test system: SF-268
TK-10 = test system: TK-10
IGROV-1 = test system: IGROV-1
M14 = test system: M14
SK-MEL-28 = test system: SK-MEL-28
786-0 = test system: 786-0
HCC 2998 = test system: HCC 2998
SN12C = test system: SN12C
RXF 393 = test system: RXF 393
LOX IMVI = test system: LOX IMVI
HT-29 = test system: HT-29
CAKI-1 = test system: CAKI-1
EKVX = test system: EKVX
SK-OV-3 = test system: SK-OV-3
A549 = test system: A549
SK-MEL-5 = test system: SK-MEL-5
ACHN = test system: ACHN
A498 = test system: A498
CCRF-CEM = test system: CCRF-CEM
MDA-MB-435 = test system: MDA-MB-435
Hs-578T = test system: Hs-578T
HOP-62 = test system: HOP-62
COLO 205 = test system: COLO 205
HL-60 = test system: HL-60
DU-145 = test system: DU-145
MCF7 = test system: MCF7
OVCAR-3 = test system: OVCAR-3
HCT-116 = test system: HCT-116
OVCAR-5 = test system: OVCAR-5
NCI-H522 = test system: NCI-H522
NCI-H23 = test system: NCI-H23
PC-3 = test system: PC-3
KM12 = test system: KM12
HCT-15 = test system: HCT-15
HOP-92 = test system: HOP-92
UO-31 = test system: UO-31
K562 = test system: K562
SF-295 = test system: SF-295
OVCAR-4 = test system: OVCAR-4
T47D = test system: T47D
RPMI-8226 = test system: RPMI-8226
NCI-H460 = test system: NCI-H460
SNB-19 = test system: SNB-19
SK-MEL-2 = test system: SK-MEL-2
SW-620 = test system: SW-620
SNB-75 = test system: SNB-75
MDA-MB-231 = test system: MDA-MB-231
UACC-257 = test system: UACC-257
U-251 = test system: U-251
NCI/ADR-RES = test system: NCI/ADR-RES
MOLT-4 = test system: MOLT-4
SF-539 = test system: SF-539
Malme-3M = test system: Malme-3M
MDA-N = test system: MDA-N
OVCAR-8 = test system: OVCAR-8
SR = test system: SR
UACC-62 = test system: UACC-62
NCI-H226 = test system: NCI-H226

COC(=O)c1ccc2c(c1)CC1(C2)Cc2cc3c(cc2C1=O)CCC3 (stereo not given)
GI50 (SF-268): 79.6 µM (inactive)
GI50 (TK-10): 54.1 µM (inactive)
GI50 (IGROV-1): 44.1 µM (inactive)
GI50 (M14): 19.2 µM (inactive)
GI50 (SK-MEL-28): 46.1 µM (inactive)
GI50 (786-0): 53 µM (inactive)
GI50 (HCC 2998): 40.3 µM (inactive)
GI50 (SN12C): 22 µM (inactive)
GI50 (RXF 393): 30.1 µM (inactive)
GI50 (LOX IMVI): 24.3 µM (inactive)
GI50 (HT-29): 15.4 µM (inactive)
GI50 (CAKI-1): 14.6 µM (inactive)
GI50 (EKVX): 61.2 µM (inactive)
GI50 (SK-OV-3): 98.6 µM (inactive)
GI50 (A549): 36.7 µM (inactive)
GI50 (SK-MEL-5): 9.18 µM (inactive)
GI50 (ACHN): 34.9 µM (inactive)
GI50 (A498): 64.3 µM (inactive)
GI50 (CCRF-CEM): 15 µM (inactive)
GI50 (MDA-MB-435): 23.8 µM (inactive)
GI50 (Hs-578T): 77.4 µM (inactive)
GI50 (HOP-62): 46.5 µM (inactive)
GI50 (COLO 205): 14.8 µM (inactive)
GI50 (HL-60): 16.8 µM (inactive)
GI50 (DU-145): 57.7 µM (inactive)
GI50 (MCF7): 20.9 µM (inactive)
GI50 (OVCAR-3): 26.7 µM (inactive)
GI50 (HCT-116): 29.6 µM (inactive)
GI50 (OVCAR-5): 84.1 µM (inactive)
GI50 (NCI-H522): 39.6 µM (inactive)
GI50 (NCI-H23): 43.6 µM (inactive)
GI50 (PC-3): 39.4 µM (inactive)
GI50 (KM12): 9.46 µM (inactive)
GI50 (HCT-15): 34.9 µM
GI50 (HOP-92): 28.2 µM (inactive)
GI50 (UO-31): 38.7 µM (inactive)
GI50 (K562): 17.5 µM (inactive)
GI50 (SF-295): 56.5 µM (inactive)
GI50 (OVCAR-4): 24.7 µM (inactive)
GI50 (T47D): 42.5 µM (inactive)
GI50 (RPMI-8226): 13.2 µM (inactive)
GI50 (NCI-H460): 37.2 µM (inactive)
GI50 (SNB-19): > 100 µM (inactive)
GI50 (SK-MEL-2): 38.8 µM (inactive)
GI50 (SW-620): 60.4 µM (inactive)
GI50 (SNB-75): 21.6 µM (inactive)
GI50 (MDA-MB-231): 36.4 µM (inactive)
GI50 (UACC-257): 18.3 µM (inactive)
GI50 (U-251): 33.7 µM (inactive)
GI50 (NCI/ADR-RES): 22 µM (inactive)
GI50 (MOLT-4): 10.9 µM (inactive)
GI50 (SF-539): > 100 µM (inactive)
GI50 (Malme-3M): 27.4 µM (inactive)
GI50 (MDA-N): 21.1 µM (inactive)
GI50 (OVCAR-8): 31.6 µM (inactive)

O=C1[C@H](O)[C@@H]2CCC[C@@]23CCCN13
GI50 (SF-268): > 100 µM (inactive)
GI50 (TK-10): > 100 µM (inactive)
GI50 (IGROV-1): > 100 µM (inactive)
GI50 (M14): > 100 µM (inactive)
GI50 (SR): > 100 µM (inactive)
GI50 (786-0): > 100 µM (inactive)
GI50 (HCC 2998): > 100 µM (inactive)
GI50 (SN12C): > 100 µM (inactive)
GI50 (RXF 393): > 100 µM (inactive)
GI50 (LOX IMVI): > 100 µM (inactive)
GI50 (HT-29): > 100 µM (inactive)
GI50 (CAKI-1): > 100 µM (inactive)
GI50 (EKVX): > 100 µM (inactive)
GI50 (SK-OV-3): > 100 µM (inactive)
GI50 (A549): > 100 µM (inactive)
GI50 (SK-MEL-5): > 100 µM (inactive)
GI50 (ACHN): > 100 µM (inactive)
GI50 (A498): > 100 µM (inactive)
GI50 (CCRF-CEM): 94.4 µM (inactive)
GI50 (MDA-MB-435): > 100 µM (inactive)
GI50 (Hs-578T): > 100 µM (inactive)
GI50 (HOP-62): > 100 µM (inactive)
GI50 (COLO 205): > 100 µM (inactive)
GI50 (HL-60): > 100 µM (inactive)
GI50 (DU-145): > 100 µM (inactive)
GI50 (MCF7): > 100 µM (inactive)
GI50 (OVCAR-3): > 100 µM (inactive)
GI50 (UACC-62): > 100 µM (inactive)
GI50 (HCT-116): > 100 µM (inactive)
GI50 (OVCAR-5): > 100 µM (inactive)
GI50 (NCI-H522): > 100 µM (inactive)
GI50 (NCI-H23): > 100 µM (inactive)
GI50 (KM12): > 100 µM (inactive)
GI50 (HCT-15): > 100 µM
GI50 (HOP-92): > 100 µM (inactive)
GI50 (UO-31): > 100 µM (inactive)
GI50 (K562): > 100 µM (inactive)
GI50 (SF-295): > 100 µM (inactive)
GI50 (T47D): > 100 µM (inactive)
GI50 (RPMI-8226): > 100 µM (inactive)
GI50 (NCI-H460): > 100 µM (inactive)
GI50 (NCI-H226): > 100 µM (inactive)
GI50 (SW-620): > 100 µM (inactive)
GI50 (SNB-75): > 100 µM (inactive)
GI50 (UACC-257): > 100 µM (inactive)
GI50 (U-251): > 100 µM (inactive)
GI50 (NCI/ADR-RES): > 100 µM (inactive)
GI50 (MOLT-4): > 100 µM (inactive)
GI50 (SF-539): > 100 µM (inactive)
GI50 (MDA-N): > 100 µM (inactive)
GI50 (OVCAR-8): > 100 µM (inactive)

CC(C)CCNC(=O)c1ccc(CNC(=O)/C=C/c2ccc(-c3ccccc3[N+](=O)[O-])o2)cc1
GI50 (SF-268): 18.6 µM (inactive)
GI50 (M14): > 100 µM (inactive)
GI50 (SK-MEL-28): 16.6 µM (inactive)
GI50 (SR): 91.8 µM (inactive)
GI50 (786-0): 28.6 µM (inactive)
GI50 (HCC 2998): > 100 µM (inactive)
GI50 (SN12C): > 100 µM (inactive)
GI50 (RXF 393): > 100 µM (inactive)
GI50 (LOX IMVI): > 100 µM (inactive)
GI50 (CAKI-1): 46.3 µM (inactive)
GI50 (SK-OV-3): > 100 µM (inactive)
GI50 (A549): 68.2 µM (inactive)
GI50 (SK-MEL-5): 18.1 µM (inactive)
GI50 (ACHN): 53.2 µM (inactive)
GI50 (CCRF-CEM): 12.2 µM (inactive)
GI50 (MDA-MB-435): 34.9 µM (inactive)
GI50 (HOP-62): 24.3 µM (inactive)
GI50 (COLO 205): > 100 µM (inactive)
GI50 (HL-60): 11.6 µM (inactive)
GI50 (DU-145): 64.9 µM (inactive)
GI50 (MCF7): 68.5 µM (inactive)
GI50 (OVCAR-3): 94.8 µM (inactive)
GI50 (UACC-62): 16 µM (inactive)
GI50 (HCT-116): 34.2 µM (inactive)
GI50 (OVCAR-5): 81.8 µM (inactive)
GI50 (NCI-H23): 82.8 µM (inactive)
GI50 (PC-3): > 100 µM (inactive)
GI50 (KM12): 32.5 µM (inactive)
GI50 (HCT-15): > 100 µM
GI50 (HOP-92): > 10 µM (inactive)
GI50 (UO-31): 76.7 µM (inactive)
GI50 (K562): 82.6 µM (inactive)
GI50 (SF-295): 42.7 µM (inactive)
GI50 (OVCAR-4): 14.4 µM (inactive)
GI50 (T47D): 12.2 µM (inactive)
GI50 (RPMI-8226): 96.8 µM (inactive)
GI50 (NCI-H460): > 100 µM (inactive)
GI50 (SNB-19): 22.7 µM (inactive)
GI50 (NCI-H226): 21.9 µM (inactive)
GI50 (SK-MEL-2): 95.7 µM (inactive)
GI50 (SW-620): 41.5 µM (inactive)
GI50 (SNB-75): 25 µM (inactive)
GI50 (MDA-MB-231): > 100 µM (inactive)
GI50 (UACC-257): 47 µM (inactive)
GI50 (U-251): 56.8 µM (inactive)
GI50 (NCI/ADR-RES): 28.2 µM (inactive)
GI50 (MOLT-4): > 100 µM (inactive)
GI50 (MDA-N): 89.5 µM (inactive)
GI50 (OVCAR-8): 26.6 µM (inactive)
